In US20130045869A1, “COMPLEXES OF HERBICIDAL CARBOXYLIC ACIDS AND AMINE-CONTAINING POLYMERS OR OLIGOMERS” (Dow AgroSciences LLC, priority 2011, published 2013):

Tests used:
[1] = Relative volatility by thermo-gravimetric analysis; format: physicochemical; conditions: TGA at 120° C.
Method: Using a TA Instruments (New Castle, Del.) Model TGA 2050 thermo-gravimetric analyzer, a typical thermo-gravimetric analysis (TGA) is carried out by (a) weighing out 10-20 mg of the sample, (b) loading it into an aluminum or platinum holding pan, and (c) measuring and recording the mass loss of the sample over time at a constant temperature of 120° C. The volatility of the sample is obtained as the rate of mass loss per unit time when the loss rate becomes constant (reaches steady state).
Relative volatility is defined as the ratio of the volatility of a given 2,4-D or triclopyr sample over that of the corresponding 2,4-D DMA or triclopyr triethylamine salt that was arbitrarily set at 100.

Eye irritation testing = format: in vivo, New Zealand albino rabbit; conditions: 456 gae/L, 21 days after application, most sensitive animal; for Eye irritation score, Iris: maximum 2; for Eye irritation score, Cornea: maximum 4; for Eye irritation score, Conjunctivae: maximum 10
Method: Eye irritation testing was done according to guideline testing requirements specified in: (1) OECD Guideline for the Testing of Chemicals, Procedure 405 (2002), (2) U.S. EPA Health Effects Test Guidelines, OPPTS 870.2400 (1998), (3) JMAFF 12-Nouan-1847 (2000) and (4) Official Journal of the European Communities, Methods for the Determination of Toxicity, Part B.5 (Eye Irritation), Directive 2004/73/ED, 29 Apr. 2004.
Test material formulations were administered to New Zealand albino rabbit (1 to 3 animals per formulation) to determine the potential to produce eye irritation. The material was applied in a single dose to the conjuctival sac of one eye of each animal. The other eye remained untreated and served as a control. Irritation of the cornea, iris and conjunctivae were evaluated 21 days after application of the test material.
The results are reported as irritation present in the cornea, iris and conjunctivae in the most sensitive animal 21 days after application. Testing was conducted with the following concentrates: (1) 2,4-D PEI complex (Lupasol® G20 complex, 456 grams acid equivalent per liter (gae/l)), (2) 2,4-D DMA (dimethyl ammonium salt, 456 gae/l), (3) 2,4-D DMEA (dimethylethyl ammonium salt, 456 gae/l), (4) 2,4-D IPA (isopropyl ammonium salt, 456 gae/l), and (5) 2,4-D TIPA (triisopropanol ammonium salt, 456 gae/l).

[2] = ratio to triclopyr triethylamine salt set at 100
[3] = ratio to 2,4-D DMA salt set at 100

SMILES | Relative volatility [1, 2] | Relative volatility [1, 3] | Eye irritation score, Iris (Eye irritation testing) | Eye irritation score, Cornea (Eye irritation testing) | Eye irritation score, Conjunctivae (Eye irritation testing)
CCCCOCCOC(=O)COc1nc(Cl)c(Cl)cc1Cl [triclopyr butoxyethyl ester] | 302 |  |  |  | 
CCCCC(CC)COC(=O)COc1ccc(Cl)cc1Cl (stereo not drawn) [2,4-D ethylhexyl ester] |  | 1201 |  |  | 
CC(C)N.O=C(O)COc1ccc(Cl)cc1Cl [2,4-D IPA] |  |  | 0 | 4 | 6
CCN(CC)CC.O=C(O)COc1nc(Cl)c(Cl)cc1Cl [triclopyr triethylamine salt] | 100 |  |  |  | 
CC(O)CN(CC(C)O)CC(C)O.O=C(O)COc1ccc(Cl)cc1Cl (stereo not drawn) [2,4-D TIPA] |  |  | 0 | 3 | 1
CNC.O=C(O)COc1ccc(Cl)cc1Cl [2,4-D DMA salt, 2,4-D dimethylamine (DMA) salt] |  | 100 | 1 | 3 | 3
O=C(O)COc1ccc(Cl)cc1Cl [2,4-D acid tech, 2,4-dichlorophenoxyacetic acid] |  | 249 |  |  | 
O=C(O)COc1nc(Cl)c(Cl)cc1Cl [triclopyr acid] | 135 |  |  |  | 
